This is an account of results in patent publication US9902776B2, “Anti-EGFR antibody and anti-c-Met/anti-EGFR bispecific antibodies comprising the same” (Samsung Electronics Co., Ltd., priority 2013, dated 2018).

One experiment relates to SNU5 cells. The experiment is described as follows: SNU5 xenograft tumor model in CB.17-SCID mice. It counts as in vivo. The settings on record: intravenous, 4 weeks; antibodies 1 mg/kg once a week, Irinotecan 10 mg/kg twice a week; initial size 100 mm^3. The method, then:
SNU5 cells (ATCC) were injected into dorsal subcutis of 5-6 week old CB.17-SCID mice (Shanghai SLAC Laboratory Animal Co. Ltd.) at the amount of 3×10^6 cell/mouse, to prepare tumor models. When the tumor volume reaches 100 mm^3, 1 mg/kg of L3-1Y-IgG2 and 1 mg/kg of anti-c-Met/anti-EGFR bispecific antibody ME22S were intravenously administered alone or in combination once a week for 4 weeks in total. A group where PBS is intravenously administered thereto was used as a negative control, and a group where 10 mg/kg of an anticancer drug, Irinotecan (Pfizer Inc.), was intravenously administered thereto twice a week for 4 weeks in total, was used as a positive control. The tumor size (length×breadth×height) was measured twice each week, and at the last week, the mice were autopsied.

The next experiment deals with c-Met (Homo sapiens, UniProt P08581). The experiment is described as follows: Specificity of expressed scFv of huAbF46. The format is binding. The arrangement: endogenous in cells; host or cells: SNU638 (A8, A11); MKN45 (A11). The settings on record: after expression. An excerpt: For use in constructing an scFv of the huAbF46 antibody from the heavy and light chain variable regions of the huAbF46 antibody, a gene was designed to have the structure of “VH-linker-VL” for each of the heavy and the light chain variable region, with the linker including the amino acid sequence “[…]” (SEQ ID NO: 54). A polynucleotide sequence (SEQ ID NO: 55) encoding the designed scFv of huAbF46 was synthesized in Bioneer and an expression vector for the polynucleotide had the nucleotide sequence of SEQ ID NO: 56.
c-Met, sequence (P08581 25-1390): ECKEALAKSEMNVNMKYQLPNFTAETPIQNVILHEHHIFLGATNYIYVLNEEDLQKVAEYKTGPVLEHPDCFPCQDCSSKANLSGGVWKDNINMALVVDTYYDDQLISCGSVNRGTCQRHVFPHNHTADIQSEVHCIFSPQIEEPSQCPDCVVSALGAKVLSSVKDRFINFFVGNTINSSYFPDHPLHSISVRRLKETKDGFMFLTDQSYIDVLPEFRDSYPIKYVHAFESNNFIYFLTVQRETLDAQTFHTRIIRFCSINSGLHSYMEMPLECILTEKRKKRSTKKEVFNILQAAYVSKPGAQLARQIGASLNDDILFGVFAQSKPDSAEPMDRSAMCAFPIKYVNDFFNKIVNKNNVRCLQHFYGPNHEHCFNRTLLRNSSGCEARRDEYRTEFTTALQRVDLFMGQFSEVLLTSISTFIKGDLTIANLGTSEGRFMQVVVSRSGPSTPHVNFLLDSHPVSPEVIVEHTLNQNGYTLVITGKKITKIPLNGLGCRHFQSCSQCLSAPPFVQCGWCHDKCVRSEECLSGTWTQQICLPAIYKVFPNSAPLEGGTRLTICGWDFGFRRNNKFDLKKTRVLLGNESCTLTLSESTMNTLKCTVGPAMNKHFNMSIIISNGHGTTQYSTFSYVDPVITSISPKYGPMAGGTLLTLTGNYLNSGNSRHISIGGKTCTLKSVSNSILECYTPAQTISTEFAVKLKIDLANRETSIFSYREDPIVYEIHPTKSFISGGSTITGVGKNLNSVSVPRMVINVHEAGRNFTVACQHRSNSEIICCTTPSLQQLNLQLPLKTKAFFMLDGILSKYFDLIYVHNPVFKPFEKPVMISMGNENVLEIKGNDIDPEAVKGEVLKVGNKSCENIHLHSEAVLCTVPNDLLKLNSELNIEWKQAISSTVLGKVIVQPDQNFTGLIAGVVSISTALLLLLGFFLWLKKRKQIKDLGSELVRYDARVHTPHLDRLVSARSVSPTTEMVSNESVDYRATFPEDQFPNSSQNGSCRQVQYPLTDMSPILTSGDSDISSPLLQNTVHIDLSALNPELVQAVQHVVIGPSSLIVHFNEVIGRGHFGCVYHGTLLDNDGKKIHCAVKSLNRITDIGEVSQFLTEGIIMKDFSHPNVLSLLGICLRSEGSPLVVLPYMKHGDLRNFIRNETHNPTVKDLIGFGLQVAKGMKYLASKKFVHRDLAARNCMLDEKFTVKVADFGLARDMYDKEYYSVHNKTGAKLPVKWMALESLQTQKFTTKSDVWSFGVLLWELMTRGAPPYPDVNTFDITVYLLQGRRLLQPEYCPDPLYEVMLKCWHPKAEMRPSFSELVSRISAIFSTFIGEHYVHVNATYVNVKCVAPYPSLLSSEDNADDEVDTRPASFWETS

For the molecule `CCc1c2c(nc3ccc(OC(=O)N4CCC(N5CCCCC5)CC4)cc13)-c1cc3c(c(=O)n1C2)COC(=O)[C@]3(O)CC` [Irinotecan, reference compound], in the experiment with SNU5 cells, the final tumor size entry is “about 72 mm^3”.

B1: scFv of huAbF46: scFv of huAbF46, structure VH-linker-VL with linker SEQ ID NO: 54 (protein)
scFv: EVQLVESGGGLVQPGGSLRLSCAASGFTFTDYYMSWVRQAPGKGLEWLGFIRNKANGYTTEYSASVKGRFTISRDNSKNTLYLQMNSLRAEDTAVYYCARDNWFAYWGQGTLVTVSSGLGGLGGGGSGGGGSGGSSGVGSDIQMTQSPSSLSASVGDRVTITCKSSQSLLASGNQNNYLAWHQQKPGKAPKMLIIWASTRVSGVPSRFSGSGSGTDFTLTISSLQPEDFATYYCQQSYSAPLTFGQGTKVEIKR
B1: the “specificity to c-Met” value in the experiment with c-Met is “exhibit specificity to c-Met”.
